Laboratory results as given in patent US20260250318A1, “COMPOSITIONS AND METHODS FOR CROSSING THE BLOOD BRAIN BARRIER” (VOYAGER THERAPEUTICS, INC., priority 2022, published 2026).

Tested on: brains, heart, liver, muscle, and DRG of the NHPs
Test: Maturation of TTM-001 and TTM-002 capsids, NGS enrichment in NHP tissues
Format: in vivo
Source text: This Example describes maturation of the AAV9 capsid variants, TTM-001 (SEQ ID NO: 981 (amino acid) and 983 (DNA), comprising SEQ ID NO: 941 (encoded by SEQ ID NO: 942)) and TTM-002 (SEQ ID NO: 982 (amino acid) and 984 (DNA), comprising SEQ ID NO: […] (encoded by SEQ ID NO: 944)) in NHPs to further enhance their transduction and biodistribution in the central nervous system as well as other tissues, and evolve the AAV capsid variants to provide further cross-species compatibility. Two approaches were used to mature the TTM-001 and TTM-002 capsid sequences in order to randomize and mutate within and around the peptide insert comprised within loop IV of the capsid variant. […] In the first maturation approach, sets of three contiguous amino acids were randomized across the mutagenesis region in the TTM-001 and TTM-002 sequences, which spanned from position 450 to position 466, numbered according to SEQ ID NO: 981 and 982. In the second maturation approach, mutagenic primers were used to introduce point mutations at a low frequency, scattered across the mutagenesis region in the TTM-001 and TTM-002 sequences ranging from position 449 to position 466, numbered according to SEQ ID NO: 981 and 982. AAV capsid variants arising from each maturation approach for TTM-001 and TTM-002 were pooled together, for subsequent testing and characterization in NHPs.
The library of pooled matured AAV capsid variants generated using the first maturation approach and the second maturation approach for the TTM-001 and TTM-002 AAV capsid variants were injected into two NHPs. […] Following RNA recovery and RT-PCR amplification, a systematic NGS enrichment analysis was performed to calculate the fold enrichment ratio relative to an AAV9 control, and the peptides comprised within the variants were identified.
Following the RNA recovery and NGS analysis from the second maturation approach, approximately 680,000 capsid variants were identified. The 680,000 matured capsid variants were then filtered based on samples with a raw virus count greater than 10 and a coefficient of variance (CV) of less than 1, which was calculated for each peptide across the brain samples taken from the two NHPs. […] Using this filtering criteria, this led to approximately 64,000 matured capsid variants.

[1] = NHP DRG, NGS, relative to AAV9 control
[2] = NHP brain, NGS, relative to AAV9 control
[3] = NHP heart, NGS, relative to AAV9 control
[4] = NHP liver DNA, NGS, relative to AAV9 control
[5] = NHP liver RNA, NGS, TTM-001 and TTM-002 matured AAV capsid variants, relative to AAV9 control
[6] = NHP muscle, NGS, relative to AAV9 control

Sequence | Fold Enrichment relative to AAV9, DRG (NHP) [1] | Fold Enrichment relative to AAV9, Brain (NHP) [2] | Fold Enrichment relative to AAV9, Heart (NHP) [3] | Fold Enrichment relative to AAV9, Liver DNA (NHP) [4] | Fold Enrichment relative to AAV9, Liver RNA (NHP) [5] | Fold Enrichment relative to AAV9, Muscle (NHP) [6] | Fold Enrichment relative to AAV9, DRG (NHP) (NGS fold-enrichment, DRG, NHP, relative to AAV9) | Fold Enrichment relative to AAV9, Brain (NHP) (NGS fold-enrichment, brain, NHP, relative to AAV9) | Fold Enrichment relative to AAV9, Heart (NHP) (NGS fold-enrichment, heart, NHP, relative to AAV9) | Fold Enrichment relative to AAV9, Liver DNA (NHP) (NGS fold-enrichment, liver DNA, NHP, relative to AAV9) | Fold Enrichment relative to AAV9, Liver RNA (NHP) (NGS fold-enrichment, liver RNA, NHP, relative to AAV9) | Fold Enrichment relative to AAV9, Muscle (NHP) (NGS fold-enrichment, muscle, NHP, relative to AAV9)
KTINGSGSPHSKRHRQQT | 0.000 fold | 0.000 fold | 0.000 fold | 4.648 fold | 73.225 fold | 0.000 fold |  |  |  |  |  | 
KTINGSGSPHSGCQNQQT | 0.000 fold | 0.000 fold | 0.000 fold | 1.981 fold | 24.818 fold | 0.000 fold |  |  |  |  |  | 
KTINGSGSPHPRKQNQQT | 0.000 fold | 0.000 fold | 0.000 fold | 3.248 fold | 12.249 fold | 0.000 fold |  |  |  |  |  | 
KTINGSGSPHLCTQNQQT | 0.000 fold | 0.000 fold | 0.000 fold | 2.489 fold | 11.176 fold | 0.000 fold |  |  |  |  |  | 
KTINGSGSPHSKAQNFKR | 0.000 fold | 0.000 fold | 0.000 fold | 0.964 fold | 32.291 fold | 0.000 fold |  |  |  |  |  | 
KTINGSGSPHQGCQNQQT | 0.000 fold | 0.000 fold | 0.000 fold | 1.037 fold | 17.676 fold | 0.000 fold |  |  |  |  |  | 
KTINGSGSPHCALQNQQT | 0.000 fold | 0.000 fold | 0.000 fold | 3.867 fold | 11.404 fold | 0.000 fold |  |  |  |  |  | 
KTINGSGSPHSKAQARKT | 0.000 fold | 0.000 fold | 0.000 fold | 3.644 fold | 96.557 fold | 0.000 fold |  |  |  |  |  | 
KTTGRSGSPHSKAQNQQT |  |  |  |  |  |  | 0.000 fold | 0.000 fold | 0.000 fold | 0.126 fold | 10.863 fold | 0.000 fold
KTINGSGSPHSLWKNQQT | 0.000 fold | 0.000 fold | 0.000 fold | 4.010 fold | 45.796 fold | 0.000 fold |  |  |  |  |  | 
KRSYGSGSPHSKAQNQQT | 0.000 fold | 0.000 fold | 0.000 fold | 2.841 fold | 22.474 fold | 0.000 fold |  |  |  |  |  | 
KTINGSGSPHSFQINQQT | 0.000 fold | 0.308 fold | 1.568 fold | 0.269 fold | 17.418 fold | 0.000 fold |  |  |  |  |  | 
KFFHGSGSPHSKAQNQQT | 0.000 fold | 0.000 fold | 0.000 fold | 0.897 fold | 15.412 fold | 0.000 fold |  |  |  |  |  | 
KTINGSGSPHSCPQNQQT | 0.000 fold | 0.000 fold | 0.000 fold | 1.776 fold | 16.701 fold | 0.000 fold |  |  |  |  |  | 
KTINGSGSPHSLYQNQQT | 0.000 fold | 0.000 fold | 0.000 fold | 1.503 fold | 11.590 fold | 0.000 fold |  |  |  |  |  | 
KTINGSGSPHSKWRLQQT | 0.000 fold | 0.000 fold | 0.000 fold | 2.037 fold | 68.083 fold | 0.000 fold |  |  |  |  |  | 
KTINGSGSPHSKAFSWQT | 0.000 fold | 0.000 fold | 0.000 fold | 1.805 fold | 51.304 fold | 0.000 fold |  |  |  |  |  | 
KTINGSGSPHSKFKNQQT | 0.000 fold | 0.000 fold | 0.000 fold | 1.074 fold | 21.951 fold | 0.000 fold |  |  |  |  |  | 
